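Growth conditions: 96-well plates. Treatment: test compound, 48 hours, 5 concentrations. Analysis: linear interpolation between bracketing concentrations; unreached endpoints set to highest concentration. Abbreviation: GI50, concentration required for 50% inhibition of growth. TGI: total growth inhibition.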
What was measured:
Assay in all cases: NCI anticancer screen, dose series, 48 h
[1] = test system: HL-60(TB) leukemia
[2] = test system: OVCAR-8 ovarian
[3] = test system: SF-539 CNS
[4] = test system: EKVX NSCLC
[5] = test system: SK-MEL-5 melanoma
[6] = test system: 786-0 renal
[7] = test system: SW-620 colon
[8] = test system: NCI/ADR-RES ovarian
[9] = test system: MCF7 breast
[10] = test system: HCC-2998 colon

SMILES	TGI [1]	TGI [2]	TGI [3]	TGI [4]	TGI [5]	TGI [6]	TGI [7]	TGI [8]	TGI [9]	GI50 [1]	GI50 [2]	GI50 [3]	GI50 [4]	GI50 [5]	GI50 [6]	GI50 [7]	GI50 [8]	TGI [10]	GI50 [10]	GI50 [9]
Cc1cc(O)cc2c1c(=O)c1ccccc1n2C	> 100 µM	> 100 µM	> 100 µM	> 100 µM	> 100 µM	> 100 µM	> 100 µM	> 100 µM	> 100 µM	–	–	–	–	–	–	–	–	–	–	–
CCOC(=O)/C(C#N)=C/Nc1ccc(-c2nc3ccccc3[nH]2)cc1	97.3 µM	> 100 µM	40.9 µM	> 100 µM	> 100 µM	64.7 µM	> 100 µM	66.1 µM	–	40.5 µM	> 100 µM	21.5 µM	34.4 µM	28.5 µM	27.2 µM	54.1 µM	41.4 µM	–	–	–
COc1ccc2c(c1)OCCC1=C2SCC2(C)CCN=C12 (stereo not drawn)	> 100 µM	> 100 µM	> 100 µM	–	> 100 µM	> 100 µM	> 100 µM	–	–	–	–	–	–	–	–	–	–	–	–	–
CC(=O)O[C@H]1C=CC23OC(=O)[C@]1(C)[C@H]2[C@H](C(=O)O)C12CC(=O)[C@@](CO)(CC[C@H]13)C2	> 100 µM	> 100 µM	> 100 µM	> 100 µM	> 100 µM	> 100 µM	> 100 µM	–	–	–	–	–	–	–	–	–	–	> 100 µM	–	–
Nc1ccc(C(=O)N/C(=C\c2cccc([N+](=O)[O-])c2)c2nc3c4c(ccc3[nH]2)C(=O)c2ccccc2C4=O)cc1	–	> 100 µM	> 100 µM	> 100 µM	> 100 µM	> 100 µM	> 100 µM	–	–	–	–	–	–	–	–	–	–	> 100 µM	–	–
CCOC(=S)SCN1C(=O)c2ccccc2S1(=O)=O	–	> 100 µM	58.5 µM	36.6 µM	24.4 µM	47.9 µM	19.7 µM	50.8 µM	> 100 µM	–	20.8 µM	24.7 µM	19.7 µM	11.4 µM	20.9 µM	4.96 µM	14.1 µM	29.8 µM	16.2 µM	44.1 µM
Nc1c(-c2nc3ccccc3[nH]2)sc(=S)n1-c1ccc(Cl)cc1	> 100 µM	54.5 µM	37.2 µM	67.4 µM	67.6 µM	36.7 µM	> 100 µM	–	–	–	–	–	–	–	–	–	–	48.8 µM	–	–
COc1ccc(C(=O)O/N=C2/CCC/C2=C\c2ccccc2)cc1	> 100 µM	> 100 µM	99.6 µM	> 100 µM	> 100 µM	> 100 µM	> 100 µM	–	–	–	–	–	–	–	–	–	–	> 100 µM	–	–
COc1ccc(/C=N/N=C(\[O-])c2ccncc2)cc1F.COc1ccc(/C=N\N=C(/[O-])c2ccncc2)cc1F.[Cu+2]	–	27.5 µM	37.1 µM	76.3 µM	80.4 µM	44.3 µM	> 100 µM	28.8 µM	35 µM	–	13.8 µM	17.8 µM	24.3 µM	26 µM	20.2 µM	35.7 µM	13.4 µM	> 100 µM	32.9 µM	17.9 µM
COC(=O)Cc1nc2ccccc2o1	41.4 µM	> 100 µM	> 100 µM	> 100 µM	> 100 µM	> 100 µM	> 100 µM	–	–	–	–	–	–	–	–	–	–	> 100 µM	–	–
COc1cc([C@@H]2c3cc4c(cc3C[C@H]3COC(=O)[C@@H]32)OCO4)cc2c1OCO2	–	–	< 0.01 µM	> 100 µM	< 0.01 µM	> 59.8 µM	> 100 µM	< 0.01 µM	> 100 µM	–	–	–	–	–	–	–	–	< 0.01 µM	–	–
O=C(CC(=O)c1ccccc1)c1ccccc1	> 100 µM	> 100 µM	16.2 µM	38 µM	32.4 µM	43.6 µM	> 100 µM	44 µM	82.3 µM	12.3 µM	20.4 µM	4.5 µM	11.2 µM	11.5 µM	11 µM	13.2 µM	16.8 µM	–	–	10.1 µM
Cc1cc(S(=O)(=O)Nc2nc3cc(Cl)ccc3o2)c(SCc2ccccc2)cc1Cl	–	26.1 µM	34.3 µM	37 µM	32 µM	38 µM	38.5 µM	66.2 µM	60.5 µM	–	4.18 µM	17.8 µM	17.8 µM	17.1 µM	20.1 µM	19.2 µM	28.5 µM	37.4 µM	18.9 µM	24.9 µM
COc1cc2c(cc1OC)-c1ncc3cc4c(cc3c1C2)OCO4	22 µM	> 100 µM	56.1 µM	72.3 µM	> 100 µM	45.5 µM	> 100 µM	49.6 µM	30.6 µM	10.3 µM	47.3 µM	23.4 µM	22 µM	7.65 µM	18.3 µM	34.9 µM	24.8 µM	–	–	12.4 µM
C[n+]1c(N)n(C(=O)OCc2ccccc2)c(=O)c2c1ncn2C(=O)OCc1ccccc1	> 100 µM	> 100 µM	–	> 100 µM	> 100 µM	> 100 µM	> 100 µM	–	–	–	–	–	–	–	–	–	–	> 100 µM	–	–
Cn1ccnc1C[N-]Cc1nccn1C.O=[N+]([O-])[O-].O=[N+]([O-])[O-].[Cu+2]	> 100 µM	> 100 µM	> 100 µM	> 100 µM	> 100 µM	> 100 µM	> 100 µM	–	–	> 100 µM	> 100 µM	> 100 µM	> 100 µM	> 100 µM	> 100 µM	> 100 µM	–	> 100 µM	> 100 µM	–
CC1=C(C(=O)Nc2ccccc2)C(c2ccc(C(C)C)cc2)C(C(=O)Nc2ccccc2)=C(C)N1	30.7 µM	> 66.3 µM	17.6 µM	> 88 µM	27 µM	30.2 µM	41.5 µM	–	–	–	–	–	–	–	–	–	–	20.9 µM	–	–
C#Cc1cc2c(N)c(C(=O)c3cc(OC)c(OC)c(OC)c3)[nH]c2cc1OC	–	> 100 µM	1.6 µM	–	12.9 µM	> 100 µM	> 100 µM	–	> 100 µM	–	2.48 µM	0.28 µM	–	0.434 µM	0.542 µM	0.396 µM	–	> 100 µM	42.5 µM	0.325 µM
Cc1ccc(S(=O)OC23CC4CC(CC(C4)C2)C3)cc1 (stereo not drawn)	44.3 µM	> 100 µM	> 100 µM	> 100 µM	> 100 µM	> 100 µM	> 100 µM	–	–	–	–	–	–	–	–	–	–	> 100 µM	–	–

SMILES	TGI [1]	TGI [2]	TGI [3]	TGI [4]	TGI [5]	TGI [6]	TGI [7]	TGI [8]	TGI [9]	GI50 [1]	GI50 [2]	GI50 [3]	GI50 [4]	GI50 [5]	GI50 [6]	GI50 [7]	GI50 [8]	TGI [10]	GI50 [10]	GI50 [9]
COc1ccc2nc3cccc(C(=O)NCCN(C)C)c3nc2c1	4.89 µM	–	8.8 µM	12.7 µM	–	> 22.2 µM	–	–	–	–	–	–	–	–	–	–	–	6.16 µM	–	–
CCOC(=O)/N=c1/nc(N(C)C)ss1	> 100 µM	> 100 µM	> 100 µM	> 100 µM	> 100 µM	> 100 µM	> 100 µM	–	–	–	–	–	–	–	–	–	–	> 100 µM	–	–
N#Cc1cccc(OCc2ccccc2COc2cccc(C#N)c2)c1	–	> 100 µM	35.5 µM	69.2 µM	> 100 µM	27.7 µM	> 100 µM	> 100 µM	> 100 µM	–	55.9 µM	18.8 µM	28.3 µM	43.4 µM	12.3 µM	> 100 µM	50.1 µM	> 100 µM	> 100 µM	50.3 µM
NS(=O)(=O)c1ccc(NC(=O)COC(=O)c2cccc3c(=O)c4ccccc4[nH]c23)cc1	> 100 µM	65.8 µM	32.7 µM	> 100 µM	> 100 µM	45.3 µM	> 100 µM	–	–	–	–	–	–	–	–	–	–	> 100 µM	–	–
COc1ccc(C2=NOP(c3ccccc3)(c3ccccc3)(c3ccccc3)C2)cc1	14 µM	> 92.7 µM	> 100 µM	> 100 µM	28.8 µM	> 53.4 µM	> 56.2 µM	–	–	–	–	–	–	–	–	–	–	> 76.5 µM	–	–
COc1c(N2CCN(Cn3c(O)c(N=NC(=O)c4ccncc4)c4cc(F)ccc43)C(C)C2)c(F)cc2c(=O)c(C(=O)O)cn(C3CC3)c12 (stereo not drawn)	> 50 µM	> 50 µM	> 50 µM	> 50 µM	> 50 µM	> 50 µM	> 50 µM	> 50 µM	> 50 µM	> 50 µM	34.8 µM	14.6 µM	35.2 µM	16.6 µM	22.3 µM	13.2 µM	29 µM	–	–	12.4 µM
NCP(=O)(O)OCC(=O)O	> 100 µM	> 100 µM	> 100 µM	> 100 µM	> 100 µM	> 100 µM	> 100 µM	–	–	–	–	–	–	–	–	–	–	–	–	–
Cc1ccc(NC(=O)CCC(=O)C(C#N)c2ccccc2)cc1C (stereo not drawn)	> 100 µM	> 100 µM	> 100 µM	> 100 µM	> 100 µM	> 100 µM	> 100 µM	–	–	–	–	–	–	–	–	–	–	> 100 µM	–	–
C1C[OH+]CC[OH+]CC[OH+]CC[OH+]CC[OH+]CC[OH+]1.[Cl-].[Nb+5]	> 100 µM	> 100 µM	> 100 µM	–	> 100 µM	> 100 µM	> 100 µM	–	–	> 100 µM	> 100 µM	> 100 µM	–	> 100 µM	> 100 µM	> 100 µM	–	> 100 µM	> 100 µM	–
COC(=O)C1CC(C(=O)OC)c2nc3cc(C)c(C)cc3nc21 (stereo not drawn)	> 100 µM	> 100 µM	> 100 µM	> 100 µM	> 100 µM	> 100 µM	> 100 µM	–	–	–	–	–	–	–	–	–	–	> 100 µM	–	–
CO[C@H](C(=O)O)[C@@H]1Cc2cc3cc(OC4CC(OC5CC(O)C(O)C(C)O5)C(O)C(C)O4)c(C)c(O)c3c(O)c2C(=O)[C@H]1OC1CC(OC2CC(OC3CC(C)(O)C(O)C(C)O3)C(O)C(C)O2)C(O)C(C)O1 (stereo partly drawn)	> 32.5 µM	> 32.5 µM	2.02 µM	> 32.5 µM	0.868 µM	> 32.5 µM	> 32.5 µM	> 32.5 µM	–	1.06 µM	0.284 µM	0.164 µM	0.57 µM	0.159 µM	0.213 µM	0.245 µM	10.1 µM	–	–	–
Cc1cc(O)c(C(c2ccncc2)c2c(O)cc(C)[nH]c2=O)c(=O)[nH]1	> 100 µM	> 100 µM	–	> 100 µM	> 100 µM	> 100 µM	–	> 100 µM	> 100 µM	–	–	–	–	–	–	–	–	–	–	–
CCc1nc(-n2c(-c3ccccc3)nc3ccccc3c2=O)nc(N)c1-c1ccc(Cl)cc1	–	> 100 µM	> 100 µM	> 100 µM	33 µM	> 100 µM	> 100 µM	–	> 100 µM	–	7.96 µM	23.7 µM	> 100 µM	5.6 µM	5.64 µM	4.64 µM	–	–	–	80.7 µM
C1CC[N-]CC1.CC(=N\O)/C(C)=N/O.CC(=N\O)/C(C)=N/O.[CH2-]CCN1CCOCC1.[Co+2]	> 100 µM	> 100 µM	> 100 µM	> 100 µM	> 100 µM	> 100 µM	> 100 µM	> 100 µM	> 100 µM	> 100 µM	> 100 µM	> 100 µM	> 100 µM	> 100 µM	> 100 µM	> 100 µM	> 100 µM	–	–	> 100 µM
CN(C)CCNc1nc(-c2cccs2)cc(-c2cccs2)n1	–	21.7 µM	28.5 µM	–	29.6 µM	30.4 µM	29.1 µM	–	–	–	–	–	–	–	–	–	–	25.3 µM	–	–
Cn1cc(NC(=O)c2cc(NC(=O)CCCCCCC(=O)Nc3cc(C(=O)Nc4cc(C(=O)NCCC(=N)N)n(C)c4)n(C)c3)cn2C)cc1C(=O)NCCC(=N)N	8.75 µM	43.2 µM	31 µM	> 100 µM	3.89 µM	33.8 µM	> 100 µM	–	–	–	–	–	–	–	–	–	–	23.2 µM	–	–
CN(C)CC1CCCC/C1=N/OC(=O)c1ccc(Cl)c(Cl)c1 (stereo not drawn)	> 100 µM	> 100 µM	> 100 µM	> 100 µM	> 100 µM	> 100 µM	> 100 µM	–	–	–	–	–	–	–	–	–	–	> 100 µM	–	–
Nc1nc(N)c(-c2ccccc2)c(CCC(=O)Nc2ccc(Cl)cc2)n1	> 100 µM	> 100 µM	> 100 µM	> 100 µM	> 100 µM	> 100 µM	> 100 µM	–	–	–	–	–	–	–	–	–	–	> 100 µM	–	–

Reference: PubChem BioAssay (NCI)
